# Laboratory results: PubChem BioAssay (NCI)
#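 Abbreviation: GI50, concentration required for 50% inhibition of growth. At the TGI there is no net growth.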
# Columns and labels:
# Experiment in all cases: DTP human tumour cell line panel, 384-well format
# 786-0 renal = test system: 786-0 renal
# A498 renal = test system: A498 renal
# A549 NSCLC = test system: A549 NSCLC
# ACHN renal = test system: ACHN renal
# BT-549 breast = test system: BT-549 breast
# CAKI-1 renal = test system: CAKI-1 renal
# CCRF-CEM leukemia = test system: CCRF-CEM leukemia
# COLO 205 colon = test system: COLO 205 colon
# DU-145 prostate = test system: DU-145 prostate
# EKVX NSCLC = test system: EKVX NSCLC
# HCC-2998 colon = test system: HCC-2998 colon
# HCT-15 colon = test system: HCT-15 colon
# HL-60(TB) leukemia = test system: HL-60(TB) leukemia
# HOP-62 NSCLC = test system: HOP-62 NSCLC
# HOP-92 NSCLC = test system: HOP-92 NSCLC
# HS 578T breast = test system: HS 578T breast
# HT29 colon = test system: HT29 colon
# IGROV1 ovarian = test system: IGROV1 ovarian
# K-562 leukemia = test system: K-562 leukemia
# KM12 colon = test system: KM12 colon
# LOX IMVI melanoma = test system: LOX IMVI melanoma
# M14 melanoma = test system: M14 melanoma
# MALME-3M melanoma = test system: MALME-3M melanoma
# MCF7 breast = test system: MCF7 breast
# MDA-MB-231 breast = test system: MDA-MB-231 breast
# MDA-MB-435 melanoma = test system: MDA-MB-435 melanoma
# MDA-MB-468 breast = test system: MDA-MB-468 breast
# MOLT-4 leukemia = test system: MOLT-4 leukemia
# NCI-H226 lung = test system: NCI-H226 lung
# NCI-H23 lung = test system: NCI-H23 lung
# NCI-H322M lung = test system: NCI-H322M lung
# NCI-H460 NSCLC = test system: NCI-H460 NSCLC
# NCI-H522 lung = test system: NCI-H522 lung
# NCI/ADR-RES ovarian = test system: NCI/ADR-RES ovarian
# OVCAR-3 ovarian = test system: OVCAR-3 ovarian
# OVCAR-4 ovarian = test system: OVCAR-4 ovarian
# OVCAR-5 ovarian = test system: OVCAR-5 ovarian
# OVCAR-8 ovarian = test system: OVCAR-8 ovarian
# PC-3 prostate = test system: PC-3 prostate
# RPMI-8226 leukemia = test system: RPMI-8226 leukemia
# RXF 393 renal = test system: RXF 393 renal
# SF-268 CNS = test system: SF-268 CNS
# SF-295 CNS = test system: SF-295 CNS
# SF-539 CNS = test system: SF-539 CNS
# SK-MEL-28 melanoma = test system: SK-MEL-28 melanoma
# SK-MEL-5 melanoma = test system: SK-MEL-5 melanoma
# SK-OV-3 ovarian = test system: SK-OV-3 ovarian
# SN12C renal = test system: SN12C renal
# SNB-19 CNS = test system: SNB-19 CNS
# SNB-75 CNS = test system: SNB-75 CNS
# SR leukemia = test system: SR leukemia
# SW-620 colon = test system: SW-620 colon
# T-47D breast = test system: T-47D breast
# TK-10 renal = test system: TK-10 renal
# U251 glioblastoma = test system: U251 glioblastoma
# UACC-257 melanoma = test system: UACC-257 melanoma
# UACC-62 melanoma = test system: UACC-62 melanoma
# UO-31 renal = test system: UO-31 renal
smiles,measurement,setting,value
COc1cc2c(Oc3ccc4[nH]c(C)cc4c3F)ncnc2cc1OCCCN1CCCC1,GI50,786-0 renal,1.33 µM
same,TGI,786-0 renal,2.63 µM
same,GI50,A498 renal,1.24 µM
same,TGI,A498 renal,2.59 µM
same,GI50,A549 NSCLC,1.46 µM
same,TGI,A549 NSCLC,2.97 µM
same,GI50,ACHN renal,1.2 µM
same,TGI,ACHN renal,2.64 µM
same,GI50,BT-549 breast,1.04 µM
same,TGI,BT-549 breast,2.22 µM
same,GI50,CAKI-1 renal,1.05 µM
same,TGI,CAKI-1 renal,2.36 µM
same,GI50,CCRF-CEM leukemia,1.63 µM
same,TGI,CCRF-CEM leukemia,2.99 µM
same,GI50,COLO 205 colon,1.69 µM
same,TGI,COLO 205 colon,3.35 µM
same,GI50,DU-145 prostate,1.92 µM
same,TGI,DU-145 prostate,3.77 µM
same,GI50,EKVX NSCLC,1.16 µM
same,TGI,EKVX NSCLC,2.84 µM
same,GI50,HCC-2998 colon,1.59 µM
same,TGI,HCC-2998 colon,2.97 µM
same,GI50,HCT-15 colon,1.21 µM
same,TGI,HCT-15 colon,2.53 µM
same,GI50,HL-60(TB) leukemia,1.93 µM
same,TGI,HL-60(TB) leukemia,3.35 µM
same,GI50,HOP-62 NSCLC,1.5 µM
same,TGI,HOP-62 NSCLC,2.93 µM
same,GI50,HOP-92 NSCLC,0.578 µM
same,TGI,HOP-92 NSCLC,1.92 µM
same,GI50,HS 578T breast,1.26 µM
same,TGI,HS 578T breast,2.53 µM
same,GI50,HT29 colon,1.46 µM
same,TGI,HT29 colon,2.8 µM
same,GI50,IGROV1 ovarian,0.632 µM
same,TGI,IGROV1 ovarian,1.95 µM
same,GI50,K-562 leukemia,1.13 µM
same,TGI,K-562 leukemia,2.37 µM
same,GI50,KM12 colon,1.81 µM
same,TGI,KM12 colon,3.28 µM
same,GI50,LOX IMVI melanoma,1.62 µM
same,TGI,LOX IMVI melanoma,2.99 µM
same,GI50,M14 melanoma,1.68 µM
same,TGI,M14 melanoma,3.06 µM
same,GI50,MALME-3M melanoma,1.54 µM
same,TGI,MALME-3M melanoma,2.88 µM
same,GI50,MCF7 breast,1.4 µM
same,TGI,MCF7 breast,2.74 µM
same,GI50,MDA-MB-231 breast,1.76 µM
same,TGI,MDA-MB-231 breast,3.53 µM
same,GI50,MDA-MB-435 melanoma,1.77 µM
same,TGI,MDA-MB-435 melanoma,3.41 µM
same,GI50,MDA-MB-468 breast,1.04 µM
same,TGI,MDA-MB-468 breast,2.24 µM
same,GI50,MOLT-4 leukemia,1.38 µM
same,TGI,MOLT-4 leukemia,2.68 µM
same,GI50,NCI-H226 lung,0.306 µM
same,TGI,NCI-H226 lung,1.96 µM
same,GI50,NCI-H23 lung,1.15 µM
same,TGI,NCI-H23 lung,2.8 µM
same,GI50,NCI-H322M lung,1.79 µM
same,TGI,NCI-H322M lung,4.56 µM
same,GI50,NCI-H460 NSCLC,1.78 µM
same,TGI,NCI-H460 NSCLC,3.27 µM
same,GI50,NCI-H522 lung,1.55 µM
same,TGI,NCI-H522 lung,2.91 µM
same,GI50,NCI/ADR-RES ovarian,2.35 µM
same,TGI,NCI/ADR-RES ovarian,5.9 µM
same,GI50,OVCAR-3 ovarian,1.63 µM
same,TGI,OVCAR-3 ovarian,3.06 µM
same,GI50,OVCAR-4 ovarian,1.14 µM
same,TGI,OVCAR-4 ovarian,2.43 µM
same,GI50,OVCAR-5 ovarian,1.39 µM
same,TGI,OVCAR-5 ovarian,3.18 µM
same,GI50,OVCAR-8 ovarian,1.58 µM
same,TGI,OVCAR-8 ovarian,2.96 µM
same,GI50,PC-3 prostate,1.77 µM
same,TGI,PC-3 prostate,3.3 µM
same,GI50,RPMI-8226 leukemia,1.61 µM
same,TGI,RPMI-8226 leukemia,2.97 µM
same,GI50,RXF 393 renal,1.38 µM
same,TGI,RXF 393 renal,2.69 µM
same,GI50,SF-268 CNS,1.66 µM
same,TGI,SF-268 CNS,3.22 µM
same,GI50,SF-295 CNS,1.73 µM
same,TGI,SF-295 CNS,3.13 µM
same,GI50,SF-539 CNS,0.488 µM
same,TGI,SF-539 CNS,1.83 µM
same,GI50,SK-MEL-28 melanoma,1.66 µM
same,TGI,SK-MEL-28 melanoma,3.03 µM
same,GI50,SK-MEL-5 melanoma,1.3 µM
same,TGI,SK-MEL-5 melanoma,2.58 µM
same,GI50,SK-OV-3 ovarian,1.26 µM
same,TGI,SK-OV-3 ovarian,2.53 µM
same,GI50,SN12C renal,0.591 µM
same,TGI,SN12C renal,2.41 µM
same,GI50,SNB-19 CNS,1.57 µM
same,TGI,SNB-19 CNS,4.71 µM
same,GI50,SNB-75 CNS,1.32 µM
same,TGI,SNB-75 CNS,2.74 µM
same,GI50,SR leukemia,1.56 µM
same,TGI,SR leukemia,2.91 µM
same,GI50,SW-620 colon,1.63 µM
same,TGI,SW-620 colon,3.1 µM
same,GI50,T-47D breast,1.3 µM
same,TGI,T-47D breast,2.58 µM
same,GI50,TK-10 renal,1.76 µM
same,TGI,TK-10 renal,3.28 µM
same,GI50,U251 glioblastoma,1.58 µM
same,TGI,U251 glioblastoma,3 µM
same,GI50,UACC-257 melanoma,1.61 µM
same,TGI,UACC-257 melanoma,2.97 µM
same,GI50,UACC-62 melanoma,1.63 µM
same,TGI,UACC-62 melanoma,3 µM
same,GI50,UO-31 renal,1.39 µM
same,TGI,UO-31 renal,2.77 µM
